Reference: patent publication US20130338222A1, “METHODS FOR C[…] MITES” (SYNGENTA CROP PROTECTION LLC, priority 2010, published 2013)

Tested on: Varroa destructor
Assay: Varroa mite contact test on Potter-tower-treated Petri dishes, mortality after 72 h
Assay type: in vivo
Settings: adult V. destructor, 20 mites (4 dishes of 5), assessed after 72 h
From the text: Varroa mites came from bee colonies provided by a beekeeper. The mite population is kept in a dedicated apiary. For screening needs adults are collected on the same day as the beginning of experiment, either in beehive cells containing brood of worker bees or drones, or directly on bees emerging during collection.
Bee nymphs needed to feed adults of Varroa mites during experiments are choosen within the frames from which Varroa is also collected. They are collected at the stage of nymph with white or pink coloured eyes according methology described by Rembold et Kremer (Characterization of postembryonic developmental stages of the female castes of the honey bee, Apis mellifera L. Apidologie 11: 29-38).
3 cm diameter Petri dishes were used as confinement material of Varroa mites during experiments. Covers with wire mesh were put on the top of each Petri dish in order to avoid the mites to run away but also to keep favorable humidity for the bee nymph. […]
After treatment of Petri dishes, five (5) adults of V. destructor collected from the brood were placed in the petri dish. […] Mortality levels are assessed after 72 h (mites which are able to move their legs are considered as alive). […]

SMILES	% mortality of Varroa (formulation SC240, concentration 1.25 microlitre) [%]	% mortality of Varroa (formulation SC240, concentration 0.8 microlitre) [%]
CCC(C)(C)C(=O)OC1=C(c2ccc(Cl)cc2Cl)C(=O)OC12CCCCC2 [spirodiclofen, 3-(2,4-dichlorophenyl)-2-oxo-1-oxaspiro[4.5]dec-3-en-4-yl 2,2-dimethylbutyrate]	100	–
Cc1cc(C)c(C2=C(OC(=O)CC(C)(C)C)C3(CCCC3)OC2=O)c(C)c1 [spiromesifen, 3-mesityl-2-oxo-1-oxaspiro[4.4]non-3-en-4-yl 3,3-dimethylbutyrate]	–	100
